Measured values published in US20110319463A1, “PREVENTIVE OR THERAPEUTIC AGENTS FOR OPTIC NERVE DISORDERS COMPRISING 4,6-DICHLORO-1H-INDOLE-2-CARBOXYLIC ACID DERIVATIVES OR SALTS THEREOF AS ACTIVE INGREDIENTS” (Saten Pharamaceuticals Co., Ltd., priority 2009, published 2011).

Experiments:
Format in all cases: in vivo
[1] = system: cell count in the retinal ganglion cell layer; test: NMDA-induced rat retinal disorder model, retinal section evaluation (GCL cell count) after oral administration; settings: 10 nmol NMDA intravitreously, 30 mg/kg orally twice a day for 3 days, eyeballs enucleated 3 days after NMDA, non-treatment group = 100%, NMDA + base = 0%
Description: A NMDA-induced rat retinal disorder model (Invest. Ophthalmol. Vis. Sci., 2003; 44:385-392) employed widely as an optic nerve disorder model was employed to evaluate the usefulness (retinal nerve cell death inhibiting effect) of the present compound.
A rat [Slc:SD, male, about 7 week-old) was allowed to inhale a gas containing 3 to 4% (v/v) vaporized isoflurane at a rate of 1 to 1.5 L air/min to accomplish a systemic introducing anesthesia, followed by a maintaining anesthesia with 2 to 3% (v/v) isoflurane. Thereafter, 5 μl of a solution of NMDA (Sigma, catalog No. M3262) dissolved at 2 mmol/L in a phosphate buffer (hereinafter referred to also as “PBS”) was given intravitreously (10 nmol as NMDA).
The rat 3 days after the intravitreous administration of the NMDA solution was treated with a 100 mg/kg sodium pentobarbital injection solution by an intraperitoneal administration to accomplish a systemic anesthesia and then the eyeballs were enucleated. The enucleated eyeballs were fixed in a 25%(w/v) glutaraldehyde: 10% (w/v) neutral buffered formalin=1:9 mixture. The fixed eyeballs were embedded with a paraffin and then sliced into retinal sections (3 μm in thickness), which were then subjected to a hematoxylin and eosin staining. Eight retinal sections were taken per eyeball at intervals of 45 μm so that the optic nerve papilla was included. Among these 8 sections, 3 sections were selected randomly, and a selected section was photographed for the retina of 700 to 900 μm in width with its center being located about 1.25 mm from the optic nerve papilla, using which the cell count in the retinal ganglion cell layer (hereinafter referred to also as “GCL cell count”) was calculated (average value). From the resultant GCL cell count, a % GCL cell count reduction inhibition of each test substance was calculated according to Equation 1 while assigning 100% to the non-treatment group and 0% to a group of 10 nmol NMDA given intravitreously+base given orally. Each group included 4 animals (7 to 8 eyeballs).
% GCL cell count reduction inhibition=(NX−NO)/(NU−NO)×100 [Equation 1] […]

[2] = Body weight evaluation in NMDA-induced rat retinal disorder model after oral administration; settings: 10 nmol NMDA intravitreously, 30 mg/kg orally twice a day for 3 days; for Weight gain (average): from day of NMDA administration to eyeball enucleation, non-treatment group 14.1
Description: Over a period from the day of the intravitreous NMDA administration through the eyeball enucleation, each individual animal was weighed once a day. Based on the body weight of the individual animal on the day of the intravitreous NMDA administration, the difference from the body weight on the day of the eyeball enucleation was calculated and the weight gain of each individual animal was calculated (average value). Each group included 4 animals. 5 μL of an NMDA solution dissolved in PBS (10 nmol as NMDA) was administered intravitreously. A 0.5% (w/v) aqueous solution of methyl cellulose was given by a repetitive oral administration twice a day in a volume of 10 mL/kg for 3 days from the day of the intravitreous NMDA administration until 2 days later. On the day of the intravitreous NMDA administration, a 0.5% (w/v) aqueous solution of methyl cellulose was given orally two times which were about 1 hour before the intravitreous NMDA administration and 1 to 2 hours. 5 μL of an NMDA solution dissolved in PBS (10 nmol as NMDA) was administered intravitreously. Each test compound suspended in 0.5% (w/v) methyl cellulose solution was given at a dose of 30 mg/kg by a repetitive oral administration twice a day in a volume of 10 mL/kg for 3 days from the day of the intravitreous NMDA administration until 2 days later. On the day of the intravitreous NMDA administration, each test compound suspended in 0.5% (w/v) methyl cellulose solution was given orally at a dose of 30 mg/kg two times which were about 1 hour before the NMDA administration and 1 to 2 hours. As a control compound, memantine was employed. 5 μL of an NMDA solution in PBS (10 nmol as NMDA) was administered intravitreously. Memantine dissolved in 0.5% (w/v) methyl cellulose solution was given at a dose of 30 mg/kg by a repetitive oral administration twice a day in a volume of 10 mL/kg for 3 days from the day of the intravitreous NMDA administration until 2 days later. On the day of the intravitreous NMDA administration, memantine dissolved in 0.5% (w/v) methyl cellulose solution was given orally at a dose of 30 mg/kg two times which were about 1 hour before the NMDA administration and 1 to 2 hours.

[3] = system: neurofilament light chain (NFL) expression level in the retinal tissue; test: NMDA-induced rat retinal disorder model, quantitative PCR evaluation of NFL expression after intravitreous administration; settings: 10 nmol NMDA mixed with 15 nmol/eye compound intravitreously, retina isolated 1 day after, NFL corrected by GAPDH, non-treatment group = 100%, NMDA group = 0%
Description: In the NMDA-induced rat retinal disorder model, the efficacy of the test compounds were evaluated using as an index the expression level in the retinal tissue of the neurofilament light chain (hereinafter referred to also as “NFL”) which is one of major constituents of the optic nerve axon and is considered to be important in maintaining the morphology of the optic nerve axon. The rat 1 day after the intravitreous administration of NMDA was treated with a 100 mg/kg sodium pentobarbital injection solution by an intraperitoneal administration to accomplish a systemic anesthesia and then the eyeballs were enucleated, and the retina was isolated. […] RR037B). In accordance with the instruction attached to QuantiTect Multiplex PCR Kit (1000) (QIAGEN, catalog No. 204545), QuantiTect Multiplex PCR Master Mix, the synthesized cDNA, the primers/probe for NFL (Sigma, “Ordermade”) and the primers/probe for glycerylaldehyde 3-phosphate dehydrogenase (hereinafter referred to also as “GAPDH”) (Applied Biosystems, Catalog No. 4352338E) were mixed, and a quantitative PCR machine (Applied Biosystems, Catalog No. 7500-03) was employed to conduct a PCR reaction, whereby measuring the expression levels of NFL and GAPDH. From the NFL and GAPDH expression levels thus obtained, a relative NFL expression level was calculated by correcting the NFL expression level based on the housekeeping gene GAPDH expression level in accordance with Equation 2. […] Each group included 1 animal (2 eyeballs). % Relative NFL expression level=(NFL expression level/GAPDH expression level) [Equation 2] % NFL recovery=(EX−EO)/(EP−EO)×100 [Equation 3] wherein EP is a relative NFL expression level in the non-treatment group, EO is a relative NFL expression level in the group of 10 nmol intravitreous NMDA administration and EX is a relative NFL expression level in the group of intravitreous administration of 10 nmol NMDA mixed with each compound. 5 μL of an NMDA solution dissolved in a 30% (v/v) DMSO-containing purified water (10 nmol as NMDA) was administered intravitreously. […]

Compound | % Inhibition of GLC cell count reduction [1] | Weight gain compared with the non-treatment group (in words) [2] | Weight gain (average) [2] | % NFL Recovery (%, average) [3]
CC12CC3CC(C)(C1)CC(N)(C3)C2 [memantine, reference compound] | 20.7% | inhibited the weight gain | −3.6 | 33.6%
O=C(O)c1[nH]c2cc(Cl)cc(Cl)c2c1/C=C1\CCN(c2ccccc2)C1=O [Compound B′, sodium (E)-4,6-dichloro-3-((2-oxo-1-phenyl-3-pyrrolidinylidene)methyl)-1H-indole-2-carboxylate] | 14.8% | weight gain almost equivalent to that in the non-treatment group | 14.0 | 80.7%
O=C(/C=C/c1c(C(=O)O)[nH]c2cc(Cl)cc(Cl)c12)Nc1ccccc1 [Compound A′, Sodium (E)-4,6-dichloro-3-(3-oxo-3-(phenylamino)-1-propenyl)-1H-indole-2-carboxylate] | 17.0% | weight gain almost equivalent to that in the non-treatment group | 12.6 | 86.6%
